# Measured values from ChEMBL document CHEMBL4229379, “Synthesis and structure-activity relationship of novel bisindole amidines active against MDR Gram-positive and Gram-negative bacteria” (Eur J Med Chem, 2018).
# Experiments:
# [1] = tested on: Staphylococcus aureus; test: Antibacterial activity against methicillin-resistant Staphylococcus aureus ATCC 33591 after 18 hrs by CLSI broth microdilution method; format: functional; conditions: ATCC 33591, 18 h
# [2] = tested on: Pseudomonas aeruginosa; test: Antibacterial activity against Pseudomonas aeruginosa ATCC 27853 after 18 hrs by CLSI broth microdilution method; format: functional; conditions: ATCC 27853, 18 h
# [3] = tested on: Pseudomonas aeruginosa; test: Antibacterial activity against Pseudomonas aeruginosa 12-16 after 18 hrs by CLSI broth microdilution method; format: functional; conditions: 12-16, 18 h
# [4] = tested on: Enterococcus faecium; test: Antibacterial activity against vancomycin-resistant Enterococcus faecium ATCC 700221 after 18 hrs by CLSI broth microdilution method; format: functional; conditions: ATCC 700221, 18 h
# [5] = tested on: Proteus vulgaris; test: Antibacterial activity against Proteus vulgaris ATCC 29905 after 18 hrs by CLSI broth microdilution method; format: functional; conditions: ATCC 29905, 18 h
# [6] = tested on: Klebsiella pneumoniae; test: Antibacterial activity against extended-spectrum beta-lactamase deficient Klebsiella pneumoniae 7 after 18 hrs by CLSI broth microdilution method; format: functional; conditions: Klebsiella pneumoniae, 7, 18 h
# [7] = tested on: Staphylococcus aureus; test: Antibacterial activity against methicillin-sensitive Staphylococcus aureus 15 after 18 hrs by CLSI broth microdilution method; format: functional; conditions: Staphylococcus aureus, 15, 18 h
# [8] = tested on: Enterococcus faecalis; test: Antibacterial activity against vancomycin-sensitive Enterococcus faecalis 12-5 after 18 hrs by CLSI broth microdilution method; format: functional; conditions: 12-5, 18 h
# [9] = tested on: Proteus mirabilis; test: Antibacterial activity against Proteus mirabilis 12-6 after 18 hrs by CLSI broth microdilution method; format: functional; conditions: 12-6, 18 h
# [10] = tested on: Enterococcus faecalis; test: Antibacterial activity against vancomycin-sensitive Enterococcus faecalis ATCC 29212 after 18 hrs by CLSI broth microdilution method; format: functional; conditions: ATCC 29212, 18 h
# [11] = tested on: Staphylococcus epidermidis; test: Antibacterial activity against methicillin-sensitive Staphylococcus epidermidis ATCC 12228 after 18 hrs by CLSI broth microdilution method; format: functional; conditions: ATCC 12228, 18 h
# [12] = tested on: Serratia marcescens; test: Antibacterial activity against Serratia marcescens ATCC 21074 after 18 hrs by CLSI broth microdilution method; format: functional; conditions: ATCC 21074, 18 h
# [13] = tested on: Providencia rettgeri; test: Antibacterial activity against Providencia rettgeri ATCC 31052 after 18 hrs by CLSI broth microdilution method; format: functional; conditions: ATCC 31052, 18 h
# [14] = tested on: Staphylococcus aureus; test: Antibacterial activity against methicillin-sensitive Staphylococcus aureus 12-28 after 18 hrs by CLSI broth microdilution method; format: functional; conditions: 12-28, 18 h
# [15] = tested on: Klebsiella aerogenes; test: Antibacterial activity against Enterobacter aerogenes ATCC 13048 after 18 hrs by CLSI broth microdilution method; format: functional; conditions: ATCC 13048, 18 h
# [16] = tested on: Klebsiella pneumoniae; test: Antibacterial activity against extended-spectrum beta-lactamase harboring Klebsiella pneumoniae ATCC 700603 after 18 hrs by CLSI broth microdilution method; format: functional; conditions: Klebsiella pneumoniae, 700603, 18 h
# [17] = tested on: Klebsiella pneumoniae; test: Antibacterial activity against extended-spectrum beta-lactamase harboring Klebsiella pneumoniae 12-8 after 18 hrs by CLSI broth microdilution method; format: functional; conditions: 12-8, 18 h
# [18] = tested on: Staphylococcus aureus; test: Antibacterial activity against methicillin-resistant Staphylococcus aureus 12-33 after 18 hrs by CLSI broth microdilution method; format: functional; conditions: 12-33, 18 h
# [19] = tested on: Enterococcus faecalis; test: Antibacterial activity against vancomycin-resistant Enterococcus faecalis ATCC 51299 after 18 hrs by CLSI broth microdilution method; format: functional; conditions: ATCC 51299, 18 h
# [20] = tested on: Escherichia coli; test: Antibacterial activity against extended-spectrum beta-lactamase deficient Escherichia coli 12-14 after 18 hrs by CLSI broth microdilution method; format: functional; conditions: 12-14, 18 h
# [21] = tested on: Staphylococcus epidermidis; test: Antibacterial activity against methicillin-sensitive Staphylococcus epidermidis 12-6 after 18 hrs by CLSI broth microdilution method; format: functional; conditions: 12-6, 18 h
# [22] = tested on: Pseudomonas aeruginosa; test: Antibacterial activity against Pseudomonas aeruginosa PAO1 after 18 hrs by CLSI broth microdilution method; format: functional; conditions: PAO1, 18 h
# [23] = tested on: Acinetobacter calcoaceticus; test: Antibacterial activity against Acinetobacter calcoaceticus ATCC 19606 after 18 hrs by CLSI broth microdilution method; format: functional; conditions: ATCC 19606, 18 h
# [24] = tested on: Escherichia coli; test: Antibacterial activity against extended-spectrum beta-lactamase harboring Escherichia coli 12-15 after 18 hrs by CLSI broth microdilution method; format: functional; conditions: 12-15, 18 h
# [25] = tested on: Enterobacter cloacae; test: Antibacterial activity against Enterobacter cloacae ATCC 43560 after 18 hrs by CLSI broth microdilution method; format: functional; conditions: ATCC 43560, 18 h
# [26] = tested on: Klebsiella pneumoniae; test: Antibacterial activity against extended-spectrum beta-lactamase deficient Klebsiella pneumoniae 12-4 after 18 hrs by CLSI broth microdilution method; format: functional; conditions: 12-4, 18 h
# [27] = tested on: Escherichia coli; test: Antibacterial activity against extended-spectrum beta-lactamase deficient Escherichia coli ATCC 25922 after 18 hrs by CLSI broth microdilution method; format: functional; conditions: ATCC 25922, 18 h
# [28] = tested on: Enterococcus faecium; test: Antibacterial activity against vancomycin-resistant Enterococcus faecium 12-1 after 18 hrs by CLSI broth microdilution method; format: functional; conditions: 12-1, 18 h
# [29] = tested on: Staphylococcus aureus; test: Antibacterial activity against methicillin-sensitive Staphylococcus aureus ATCC 29213 after 18 hrs by CLSI broth microdilution method; format: functional; conditions: ATCC 29213, 18 h
# [30] = tested on: Escherichia coli; test: Antibacterial activity against extended-spectrum beta-lactamase deficient Escherichia coli 1515 after 18 hrs by CLSI broth microdilution method; format: functional; conditions: Escherichia coli, 1515, 18 h
# [31] = tested on: Citrobacter freundii; test: Antibacterial activity against Citrobacter freundii ATCC 43864 after 18 hrs by CLSI broth microdilution method; format: functional; conditions: ATCC 43864, 18 h
# [32] = tested on: Stenotrophomonas maltophilia; test: Antibacterial activity against Stenotrophomonas maltophilia ATCC 13636 after 18 hrs by CLSI broth microdilution method; format: functional; conditions: ATCC 13636, 18 h
# [33] = tested on: Klebsiella pneumoniae; test: Antibacterial activity against new delhi metallo-beta-lactamase-1 harboring Klebsiella pneumoniae ATCC BAA-2146 after 18 hrs by CLSI broth microdilution method; format: functional; conditions: ATCC BAA-2146, 18 h
# [34] = tested on: Enterococcus faecalis; test: Antibacterial activity against vancomycin-resistant Enterococcus faecalis 09-9 after 18 hrs by CLSI broth microdilution method; format: functional; conditions: 09-9, 18 h
# [35] = Cytotoxicity against HEK293T cells assessed as reduction in cell viability after 48 hrs by MTS assay; format: cell-based, HEK-293T; conditions: human
# [36] = tested on: Staphylococcus epidermidis; test: Antibacterial activity against methicillin-resistant Staphylococcus epidermidis 12-8 after 18 hrs by CLSI broth microdilution method; format: functional; conditions: 12-8, 18 h
# [37] = tested on: Enterococcus faecium; test: Antibacterial activity against vancomycin-sensitive Enterococcus faecium 12-3 after 18 hrs by CLSI broth microdilution method; format: functional; conditions: 12-3, 18 h
SMILES,MIC [1] [µg/mL],MIC [2] [µg/mL],MIC [3] [µg/mL],MIC [4] [µg/mL],MIC [5] [µg/mL],MIC [6] [µg/mL],MIC [7] [µg/mL],MIC [8] [µg/mL],MIC [9] [µg/mL],MIC [10] [µg/mL],MIC [11] [µg/mL],MIC [12] [µg/mL],MIC [13] [µg/mL],MIC [14] [µg/mL],MIC [15] [µg/mL],MIC [16] [µg/mL],MIC [17] [µg/mL],MIC [18] [µg/mL],MIC [19] [µg/mL],MIC [20] [µg/mL],further results
N=C(c1ccc2cc(-c3ccc(-c4cc5ccc(C(=N)N6CCOCC6)cc5[nH]4)cc3)[nH]c2c1)N1CCOCC1,0.5,> 128,> 128,4,8,8,0.5,8,32,4,0.5,> 128,8,0.5,8,16,8,0.5,4,4,MIC [21]: 0.5 µg/mL; MIC [22]: > 128 µg/mL; MIC [23]: 32 µg/mL; MIC [24]: 4 µg/mL; MIC [25]: 4 µg/mL; MIC [26]: 16 µg/mL; MIC [27]: 4 µg/mL; MIC [28]: 2 µg/mL; MIC [29]: 1 µg/mL; MIC [30]: 4 µg/mL; MIC [31]: 4 µg/mL; MIC [32]: > 128 µg/mL; MIC [33]: 8 µg/mL; MIC [34]: 4 µg/mL; CC50 at 48 h [35]: 16.4 µg/mL; MIC [36]: 0.5 µg/mL; MIC [37]: 4 µg/mL
CCC(C)NC(=N)c1ccc2cc(-c3cncc(-c4cc5ccc(C(=N)NC(C)CC)cc5[nH]4)c3)[nH]c2c1 (centres undefined),8,> 64,> 64,> 64,> 64,> 64,16,> 64,> 64,> 64,8,> 64,> 64,16,> 64,> 64,> 64,16,> 64,> 64,MIC [21]: 8 µg/mL; MIC [22]: > 64 µg/mL; MIC [23]: > 64 µg/mL; MIC [24]: > 64 µg/mL; MIC [25]: > 64 µg/mL; MIC [26]: > 64 µg/mL; MIC [27]: > 64 µg/mL; MIC [28]: 64 µg/mL; MIC [29]: 8 µg/mL; MIC [30]: > 64 µg/mL; MIC [31]: > 64 µg/mL; MIC [32]: > 64 µg/mL; MIC [33]: > 64 µg/mL; MIC [34]: > 64 µg/mL; CC50 at 48 h [35]: 22.8 µg/mL; MIC [36]: 8 µg/mL; MIC [37]: > 64 µg/mL
